Laboratory results published in ChEMBL document CHEMBL1909294, “Translating clinical findings into knowledge in drug safety evaluation--drug induced liver injury prediction system (DILIps)” (PLoS Comput Biol, 2011).

Assays:
[1] = tested on: Hepatotoxicity;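 for HepSE bilirubinemia: bilirubinemia hepatic side effect score drawn from the DILIps training data, a prediction system for drug-induced liver injury; call rule not given here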;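 for HepSE cirrhosis: cirrhosis hepatic side effect score taken from the DILIps (drug-induced liver injury prediction) training set; call rule not given here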;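 for HepSE elevated liver function tests: hepatic side effect score for raised liver function tests, as recorded in the DILIps training set used for predicting drug-induced liver injury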;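 for HepSE hepatomegaly: hepatic side effect score for hepatomegaly, taken from the training set of the DILIps drug-induced liver injury prediction system; call rule not given here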; for HepSE liver disease: call rule not given here;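 for HepSE liver fatty: hepatic side effect score for fatty liver, taken from the DILIps training set for predicting drug-induced liver injury; call rule not given here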;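 for HepSE liver function tests abnormal: hepatic side effect score taken from the DILIps (drug-induced liver injury prediction system) training data, here covering abnormal liver function test findings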
[2] = tested on: Hepatotoxicity; remark: listed apart in the source;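 for HepSE bilirubinemia: bilirubinemia hepatic side effect score drawn from the DILIps training data, a prediction system for drug-induced liver injury; call rule not given here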;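 for HepSE cirrhosis: cirrhosis hepatic side effect score taken from the DILIps (drug-induced liver injury prediction) training set; call rule not given here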;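 for HepSE elevated liver function tests: hepatic side effect score for raised liver function tests, as recorded in the DILIps training set used for predicting drug-induced liver injury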;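 for HepSE hepatomegaly: hepatic side effect score for hepatomegaly, taken from the training set of the DILIps drug-induced liver injury prediction system; call rule not given here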; for HepSE liver disease: call rule not given here;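 for HepSE liver fatty: hepatic side effect score for fatty liver, taken from the DILIps training set for predicting drug-induced liver injury; call rule not given here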
[3] = tested on: Hepatotoxicity; remark: listed apart in the source;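 for HepSE bilirubinemia: bilirubinemia hepatic side effect score drawn from the DILIps training data, a prediction system for drug-induced liver injury; call rule not given here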;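 for HepSE cirrhosis: cirrhosis hepatic side effect score taken from the DILIps (drug-induced liver injury prediction) training set; call rule not given here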;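 for HepSE elevated liver function tests: hepatic side effect score for raised liver function tests, as recorded in the DILIps training set used for predicting drug-induced liver injury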;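 for HepSE hepatomegaly: hepatic side effect score for hepatomegaly, taken from the training set of the DILIps drug-induced liver injury prediction system; call rule not given here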; for HepSE liver disease: call rule not given here;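 for HepSE liver fatty: hepatic side effect score for fatty liver, taken from the DILIps training set for predicting drug-induced liver injury; call rule not given here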
[4] = tested on: Hepatotoxicity; remark: listed apart in the source;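 for HepSE bilirubinemia: bilirubinemia hepatic side effect score drawn from the DILIps training data, a prediction system for drug-induced liver injury; call rule not given here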;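 for HepSE cirrhosis: cirrhosis hepatic side effect score taken from the DILIps (drug-induced liver injury prediction) training set; call rule not given here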;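 for HepSE elevated liver function tests: hepatic side effect score for raised liver function tests, as recorded in the DILIps training set used for predicting drug-induced liver injury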;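 for HepSE hepatomegaly: hepatic side effect score for hepatomegaly, taken from the training set of the DILIps drug-induced liver injury prediction system; call rule not given here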; for HepSE liver disease: call rule not given here;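 for HepSE liver fatty: hepatic side effect score for fatty liver, taken from the DILIps training set for predicting drug-induced liver injury; call rule not given here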
[5] = tested on: Hepatotoxicity; remark: listed apart in the source; for HepSE liver disease: call rule not given here
[6] = tested on: Hepatotoxicity; remark: listed apart in the source; for HepSE liver disease: call rule not given here
[7] = tested on: Hepatotoxicity; remark: listed apart in the source
[8] = tested on: Hepatotoxicity; remark: listed apart in the source
[9] = tested on: Hepatotoxicity; remark: listed apart in the source
[10] = tested on: Hepatotoxicity; remark: listed apart in the source
[11] = tested on: Hepatotoxicity; remark: listed apart in the source
[12] = tested on: Hepatotoxicity; remark: listed apart in the source
[13] = tested on: Hepatotoxicity; remark: listed apart in the source
[14] = tested on: Hepatotoxicity; remark: listed apart in the source

Row | Structure (SMILES) | HepSE_hepatomegaly [1] | HepSE_bilirubinemia [2] | HepSE_liver fatty [3] | HepSE_hepatic necrosis [4] | HepSE_elevated liver function tests [5] | HepSE_cirrhosis [6] | HepSE_liver disease [7] | HepSE_cholelithiasis [8] | HepSE_liver function tests abnormal [9] | HepSE_jaundice [10] | HepSE_hepatic failure [11] | HepSE_cholecystitis [12] | HepSE_hepatitis [13] | HepSE_Combined Scores [14] | further results
1 | CN(C)C(=O)C(CCN1CCC(O)(c2ccc(Cl)cc2)CC1)(c1ccccc1)c1ccccc1 [LOPERAMIDE] | 0 | 0 | 0 | 0 | 0 | 0 | 0 | 0 | 0 | 0 | 0 | 0 | 0 | 0 | –
2 | FC(F)OC(F)(F)C(F)Cl (configuration not stated) | 0 | 0 | 0 | 1 | 0 | 0 | 0 | 0 | 0 | 0 | 1 | 0 | 0 | 2 | –
3 | Cc1nc2ccc(CN(C)c3ccc(C(=O)N[C@@H](CCC(=O)O)C(=O)O)s3)cc2c(=O)[nH]1 [RALTITREXED] | 0 | 0 | 0 | 0 | 0 | 0 | 0 | 0 | 0 | 0 | 1 | 0 | 0 | 1 | –
4 | Cc1ccc(O)c([C@H](CCN(C(C)C)C(C)C)c2ccccc2)c1 [TOLTERODINE] | 0 | 0 | 0 | 0 | 0 | 0 | 0 | 0 | 0 | 0 | 0 | 0 | 0 | 0 | –
5 | O=C(O)c1ccc(-n2nc(-c3ccccc3O)nc2-c2ccccc2O)cc1 [DEFERASIROX] | 0 | 0 | 0 | 0 | 0 | 1 | 0 | 1 | 1 | 0 | 1 | 0 | 1 | 5 | –
6 | COc1cc([C@@H]2c3cc4c(cc3[C@H](O)[C@H]3COC(=O)[C@H]23)OCO4)cc(OC)c1OC [PODOFILOX] | 0 | 0 | 0 | 0 | 0 | 0 | 0 | 0 | 0 | 0 | 0 | 0 | 0 | 0 | –
7 | CCC(=O)[C@@]1(C)[C@H](C)C[C@H]2[C@@H]3CCC4=CC(=O)C=C[C@]4(C)[C@H]3[C@@H](O)C[C@@]21C [RIMEXOLONE] | 0 | 0 | 0 | 0 | 0 | 0 | 0 | 0 | 0 | 0 | 0 | 0 | 0 | 0 | –
8 | CC(C)(Oc1ccc(CCNC(=O)c2ccc(Cl)cc2)cc1)C(=O)O [BEZAFIBRATE] | 0 | 0 | 0 | 0 | 0 | 0 | 0 | 1 | 0 | 0 | 0 | 0 | 0 | 1 | –
9 | N=C(N)NC(=O)Cc1c(Cl)cccc1Cl [GUANFACINE] | 0 | 0 | 0 | 0 | 0 | 0 | 0 | 0 | 1 | 0 | 0 | 0 | 0 | 1 | –
10 | CC[N+](CC)(CCNC(=O)C(=O)NCC[N+](CC)(CC)Cc1ccccc1Cl)Cc1ccccc1Cl [AMBENONIUM] | 0 | 0 | 0 | 0 | 0 | 0 | 0 | 0 | 0 | 0 | 0 | 0 | 0 | 0 | –
11 | C[N+]1(C)[C@@H]2C[C@@H](OC(=O)C(O)(c3cccs3)c3cccs3)C[C@H]1[C@@H]1O[C@@H]12 [TIOTROPIUM] | 0 | 0 | 0 | 0 | 0 | 0 | 0 | 0 | 0 | 0 | 0 | 0 | 0 | 0 | –
12 | CC(C)(C)NC[C@H](O)COc1cccc2c1CCCC2=O [LEVOBUNOLOL] | 0 | 0 | 0 | 0 | 0 | 0 | 0 | 0 | 0 | 0 | 0 | 0 | 0 | 0 | –
13 | CCc1cc(C(N)=S)ccn1 [ETHIONAMIDE] | – | – | – | – | – | – | – | – | – | – | – | – | – | – | HepSE_hepatomegaly ([1]; Liver): 0; HepSE_bilirubinemia ([2]; Liver): 0; HepSE_liver fatty ([3]; Liver): 0; HepSE_hepatic necrosis ([4]; Liver): 0; HepSE_elevated liver function tests ([5]; Liver): 0; HepSE_cirrhosis ([6]; Liver): 0; HepSE_liver disease ([7]; Liver): 0; HepSE_cholelithiasis ([8]; Liver): 0; HepSE_liver function tests abnormal ([9]; Liver): 0; HepSE_jaundice ([10]; Liver): 1; HepSE_hepatic failure ([11]; Liver): 0; HepSE_cholecystitis ([12]; Liver): 0; HepSE_hepatitis ([13]; Liver): 1; HepSE_Combined Scores ([14]; Liver): 2
